Laboratory results as given in patent US8916576B2 (Surface Logix, Inc., priority 2005, dated 2014).
Where “and” joins values, the source holds several entries; their conditions need not be identical. Identical values can stand only once.

How the values were obtained:
ROCK2 = ROCK2 (Homo sapiens (Human), UniProt O75116); experiment: Inhibition of ROCK2 (Rho kinase inhibition assay; ROCK-II Assay Kit / IMAP); type: biochemical; conditions: for IC50: Table 1, repeat determinations; for Specificity of kinase inhibition (FIG. 10): FIG. 10 legend, ROCK2 versus ROCK1 and PKC
Sequence of ROCK2 (O75116 whole entry, species assumed): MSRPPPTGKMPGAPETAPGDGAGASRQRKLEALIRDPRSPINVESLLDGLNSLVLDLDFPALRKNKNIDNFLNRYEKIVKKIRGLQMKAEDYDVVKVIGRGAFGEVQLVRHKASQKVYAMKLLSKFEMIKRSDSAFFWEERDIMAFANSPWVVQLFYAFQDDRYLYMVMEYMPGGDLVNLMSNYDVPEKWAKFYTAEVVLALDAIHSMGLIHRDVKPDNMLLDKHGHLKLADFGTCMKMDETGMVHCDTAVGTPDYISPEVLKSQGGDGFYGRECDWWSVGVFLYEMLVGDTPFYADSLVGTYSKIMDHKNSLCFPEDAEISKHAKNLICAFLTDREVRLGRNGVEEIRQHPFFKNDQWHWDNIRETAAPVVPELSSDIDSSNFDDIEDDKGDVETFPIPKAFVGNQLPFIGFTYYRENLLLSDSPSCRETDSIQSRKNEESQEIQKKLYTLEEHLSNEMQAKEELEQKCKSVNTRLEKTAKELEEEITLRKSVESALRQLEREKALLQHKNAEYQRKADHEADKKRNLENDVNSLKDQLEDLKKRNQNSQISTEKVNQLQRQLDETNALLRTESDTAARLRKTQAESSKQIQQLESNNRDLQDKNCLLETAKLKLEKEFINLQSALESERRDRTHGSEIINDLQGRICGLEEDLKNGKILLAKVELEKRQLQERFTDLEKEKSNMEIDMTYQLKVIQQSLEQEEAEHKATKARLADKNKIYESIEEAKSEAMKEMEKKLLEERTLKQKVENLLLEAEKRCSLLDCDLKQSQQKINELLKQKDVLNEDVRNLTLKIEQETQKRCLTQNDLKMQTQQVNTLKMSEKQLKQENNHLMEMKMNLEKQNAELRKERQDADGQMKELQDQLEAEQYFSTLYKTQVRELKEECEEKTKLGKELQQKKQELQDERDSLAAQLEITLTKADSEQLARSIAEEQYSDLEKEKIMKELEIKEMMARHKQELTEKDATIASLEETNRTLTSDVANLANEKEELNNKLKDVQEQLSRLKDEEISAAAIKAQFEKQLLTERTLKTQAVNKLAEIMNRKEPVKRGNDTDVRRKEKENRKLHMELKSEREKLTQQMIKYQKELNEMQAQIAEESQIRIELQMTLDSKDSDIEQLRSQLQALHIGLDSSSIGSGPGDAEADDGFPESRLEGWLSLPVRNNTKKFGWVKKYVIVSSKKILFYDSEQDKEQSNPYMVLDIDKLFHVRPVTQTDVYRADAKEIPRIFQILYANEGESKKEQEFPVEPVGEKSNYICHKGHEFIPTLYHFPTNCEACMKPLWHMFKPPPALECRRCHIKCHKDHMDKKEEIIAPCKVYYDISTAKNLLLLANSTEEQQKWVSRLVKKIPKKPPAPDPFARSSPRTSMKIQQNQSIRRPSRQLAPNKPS
Source text: (§1) Methods of determining kinase inhibition are well known in the art. For example, kinase activity of an enzyme and the inhibitory capacity of a test compound can be determined by measuring enzyme specific phosphorylation of a substrate. Commercial assays and kits can be employed. For example, kinase inhibition can be determined using an IMAP® assay (Molecular Devices). This assay method involves the use of a fluorescently-tagged peptide substrate. Phosphorylation of the tagged peptide by a kinase of interest promotes binding of the peptide to a trivalent metal-based nanoparticle via the specific, high affinity interaction between the phospho-group and the trivalent metal. Proximity to the nanoparticle results in increased fluorescence polarization. Inhibition of the kinase by a kinase inhibitor prevents phosphorylation of the substrate and thereby limits binding of the fluorescently-tagged substrate to the nanoparticle. Such an assay can be compatible with a microwell assay format, allowing simultaneous determination of IC50 of multiple compounds.
ROCK-II inhibitory activity can be measured using the ROCK-II Assay Kit (Molecular Devices, inc.; Sunnyvale, Calif.).
(§2) Inhibition of ROCK2 by various compounds was determined.
(§3) Inhibitory activity for Rho kinase was determined for examples of compounds of the present invention. Inhibition of Rho kinase can be assayed as described. For each of these compounds their inhibitory activity for both ROCK 1 and ROCK 2 was determined. […] The IC50 values (in μM) for each of these compounds show a selectivity for inhibiting ROCK2.

ROCK 1 = ROCK 1 (Homo sapiens (Human), UniProt Q13464); experiment: Inhibition of ROCK1 (Rho kinase inhibition assay); type: biochemical; conditions: Tables 2.1-2.4
Sequence of ROCK 1 (Q13464 whole entry, species assumed): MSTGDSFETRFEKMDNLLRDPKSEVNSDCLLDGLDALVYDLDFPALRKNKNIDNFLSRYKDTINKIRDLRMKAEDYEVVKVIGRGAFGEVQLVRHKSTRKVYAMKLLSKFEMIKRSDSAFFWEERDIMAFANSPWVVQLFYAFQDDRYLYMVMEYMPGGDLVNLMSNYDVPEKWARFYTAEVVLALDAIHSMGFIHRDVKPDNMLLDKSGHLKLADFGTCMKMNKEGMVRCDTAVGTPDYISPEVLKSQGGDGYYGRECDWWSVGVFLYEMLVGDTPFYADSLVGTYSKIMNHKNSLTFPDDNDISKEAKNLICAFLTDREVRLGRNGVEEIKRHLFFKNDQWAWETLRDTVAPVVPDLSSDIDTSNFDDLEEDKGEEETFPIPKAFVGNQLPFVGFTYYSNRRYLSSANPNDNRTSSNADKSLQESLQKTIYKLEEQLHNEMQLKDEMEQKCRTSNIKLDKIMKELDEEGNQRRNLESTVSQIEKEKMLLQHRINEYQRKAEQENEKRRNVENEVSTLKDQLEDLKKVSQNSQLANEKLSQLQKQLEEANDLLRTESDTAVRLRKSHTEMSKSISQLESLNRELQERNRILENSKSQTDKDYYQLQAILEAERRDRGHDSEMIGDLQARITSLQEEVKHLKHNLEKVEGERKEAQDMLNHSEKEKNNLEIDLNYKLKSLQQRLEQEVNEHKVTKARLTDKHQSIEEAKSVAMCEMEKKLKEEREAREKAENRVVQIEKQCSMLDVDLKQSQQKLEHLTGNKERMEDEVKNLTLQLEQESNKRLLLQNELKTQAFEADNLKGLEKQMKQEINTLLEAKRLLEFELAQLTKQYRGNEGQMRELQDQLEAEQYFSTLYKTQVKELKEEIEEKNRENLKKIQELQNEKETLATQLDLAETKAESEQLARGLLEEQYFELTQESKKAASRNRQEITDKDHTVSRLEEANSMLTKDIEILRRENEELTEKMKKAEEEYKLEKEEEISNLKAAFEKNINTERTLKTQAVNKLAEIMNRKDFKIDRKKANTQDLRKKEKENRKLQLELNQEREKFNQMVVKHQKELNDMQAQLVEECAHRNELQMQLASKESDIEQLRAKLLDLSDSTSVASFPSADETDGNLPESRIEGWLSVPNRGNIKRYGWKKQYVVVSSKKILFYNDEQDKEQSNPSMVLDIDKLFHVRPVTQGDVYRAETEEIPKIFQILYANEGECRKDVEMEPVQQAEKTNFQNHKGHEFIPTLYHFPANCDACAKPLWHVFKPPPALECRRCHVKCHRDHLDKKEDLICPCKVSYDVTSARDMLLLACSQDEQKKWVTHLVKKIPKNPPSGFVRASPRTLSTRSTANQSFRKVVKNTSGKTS
Source text: as §1, §2, §3

| Structure (SMILES) | IC50 (ROCK2) | also measured |
| --- | --- | --- |
| O=C(COc1ccccc1-c1nc(N(CC(=O)NCC2CC2)c2ccc3[nH]ncc3c2)c2ccccc2n1)NCC1CC1 [Example 235] | > 100 µM |  |
| CCCCC(=O)Nc1cccc(-c2nc(Nc3ccc4[nH]ncc4c3)c3ccccc3n2)c1 [Example 259] | 0.029 µM |  |
| CC(C)NC(=O)COc1ccccc1-c1nc(Nc2ccc3[nH]ncc3c2)c2ccccc2n1 [Example 232] | > 100 µM |  |
| CC(C)NC(=O)CNc1cccc(-c2nc(Nc3ccc4[nH]ncc4c3)c3ccccc3n2)c1 [Example 230] | > 3 µM |  |
| COCCN(C)CC(=O)Nc1ccccc1-c1nc(Nc2ccc3[nH]ncc3c2)c2ccccc2n1 [Example 213] | > 100 µM |  |
| CCCC(=O)Nc1cccc(-c2nc(Nc3ccc4c(cnn4C)c3)c3cc(OCCN(C)C)ccc3n2)c1 [Example 243] | > 0.3 µM |  |
| CCCC(=O)Oc1cccc(-c2nc(Nc3ccc4[nH]ncc4c3)c3ccccc3n2)c1 [Example 211] | 0.129 µM |  |
| Oc1ccc2nc(-c3ccccc3)nc(Nc3ccc4[nH]ncc4c3)c2c1 [Example 267] | 3.9 µM |  |
| COCCNC(=O)COc1ccccc1-c1nc(N(CC(=O)NCCOC)c2ccc3[nH]ncc3c2)c2ccccc2n1 [Example 238] | > 100 µM |  |
| O=C(COc1cccc(-c2nc(Nc3ccc4[nH]ncc4c3)c3ccccc3n2)c1)Nc1cccnc1 [Example 55, 2-(3-(4-(1H-indazol-5-ylamino)quinazolin-2-yl)phenoxy)-N-(pyridin-3-yl)acetamide] |  | IC50 (ROCK 1): > 10000 nM |
| O=C(CN1CCOCC1)Nc1ccccc1-c1nc(Nc2ccc3[nH]ncc3c2)c2ccccc2n1 [Example 231] | > 3 µM |  |
| CC(C)(C)C(=O)Nc1ccccc1-c1nc(Nc2ccc3[nH]ncc3c2)c2ccccc2n1 [Example 214] | > 100 µM |  |
| O=C(Nc1ccccc1-c1nc(Nc2ccc3[nH]ncc3c2)c2ccccc2n1)c1ccoc1 [Example 216] | > 100 µM |  |
| CC(C)NC(=O)COc1cccc(-c2nc(Nc3ccc4[nH]ncc4c3)c3ccccc3n2)c1 [Example 82, 2-(3-(4-(1H-indazol-5-ylamino)quinazolin-2-yl)phenoxy)-N-isopropylacetamide] |  | Specificity of kinase inhibition (FIG. 10) (ROCK2): specific inhibition of ROCK2 |
| CCCC(=O)Nc1cccc(-c2nc(Nc3ccc4[nH]ncc4c3)c3cc(OC)c(OCCOC)cc3n2)c1 [Example 262] | 0.024 µM |  |
| O=C(Nc1ccccc1-c1nc(Nc2ccc3[nH]ncc3c2)c2ccccc2n1)C1CCCNC1 (centres unmarked) [Example 218] | > 100 µM |  |
| CN(C)C(=O)Nc1ccccc1-c1nc(Nc2ccc3[nH]ncc3c2)c2ccccc2n1 [Example 221] | 49 µM |  |
| CCCC(=O)Nc1cccc(-c2nc(Nc3ccc4[nH]ncc4c3)c3cc(OCCN4CCN(C)CC4)c(OC)cc3n2)c1 [Example 209, N-(3-(4-(1H-indazol-5-ylamino)-7-methoxy-6-(2-(4-methylpiperazin-1-yl)ethoxy)quinazolin-2-yl)phenyl)butyramide] | 0.016 µM and 0.014 µM |  |
| CCCC(=O)Nc1cccc(-c2nc(Nc3ccc4[nH]ncc4c3)c3cc(OCCN4CCCC4=O)c(OC)cc3n2)c1 [Example 206, N-(3-(4-(1H-indazol-5-ylamino)-7-methoxy-6-(2-(2-oxopyrrolidin-1-yl)ethoxy)quinazolin-2-yl)phenyl)butyramide] | 0.048 µM and 0.064 µM |  |
| COc1cc2nc(-c3cccc(NC(=O)CN4CCOCC4)c3)nc(Nc3ccc4[nH]ncc4c3)c2cc1OCCN1CCCC1 [Example 167, N-(3-(4-(1H-Indazol-5-ylamino)-7-methoxy-6-(2-(pyrrolidin-1-yl)ethoxy)quinazolin-2-yl)phenyl)-2-morpholinoacetamide] |  | IC50 (ROCK 1): > 3000 nM |
| CCCC(=O)Nc1cccc(-c2nc(Nc3ccc4[nH]ncc4c3)c3cc(OCCN(C)C)ccc3n2)c1 [Example 141, N-(3-(4-(1H-indazol-5-ylamino)-6-(2-(dimethylamino)ethoxy)quinazolin-2-yl)phenyl)butyramide] |  | IC50 (ROCK 1): > 1000 nM |
| CCCC(=O)Nc1cccc(-c2nc(Nc3ccc4[nH]ncc4c3)c3cc(OCCN4CCN(C)CC4)ccc3n2)c1 [Example 203, N-(3-(4-(1H-indazol-5-ylamino)-6-(2-(4-methylpiperazin-1-yl)ethoxy)-quinazolin-2-yl)phenyl)butyramide] | 0.012 µM and 0.0095 µM |  |
| CCCC(=O)Nc1ccccc1-c1nc(Nc2ccc3[nH]ncc3c2)c2ccccc2n1 [Example 212] | > 100 µM |  |
| O=C(CN1CCCC1)Nc1ccccc1-c1nc(Nc2ccc3[nH]ncc3c2)c2ccccc2n1 [Example 217] | 36 µM |  |

| Structure (SMILES) | IC50 (ROCK2) | also measured |
| --- | --- | --- |
| CC(=O)Oc1ccccc1-c1nc(Nc2ccc3[nH]ncc3c2)c2ccccc2n1 [Example 240] | 23 µM |  |
| O=C(COc1ccccc1-c1nc(Nc2ccc3[nH]ncc3c2)c2ccccc2n1)NCc1ccccc1 [Example 237] | > 100 µM |  |
| COc1ccccc1-c1nc(Nc2ccc3[nH]ncc3c2)c2ccccc2n1 [Example 239] | > 100 µM |  |
| COC(=O)Nc1ccccc1-c1nc(Nc2ccc3[nH]ncc3c2)c2ccccc2n1 [Example 219] | 2.9 µM |  |
| O=C(COc1ccccc1-c1nc(N(CC(=O)NCc2ccccc2)c2ccc3[nH]ncc3c2)c2ccccc2n1)NCc1ccccc1 [Example 236] | > 100 µM |  |
| Oc1ccccc1-c1nc(Nc2ccc3[nH]ncc3c2)c2ccccc2n1 [Example 233] | 2 µM and 2.5 µM |  |
| c1ccc(-c2nc(Nc3ccc4[nH]ncc4c3)c3cc(OCCN4CCOCC4)ccc3n2)cc1 [Example 265] | 6.5 µM and 7.3 µM |  |
| CCCC(=O)Nc1cccc(-c2nc(Nc3ccc4[nH]ncc4c3)c3ccc(OCCOC)cc3n2)c1 [Example 263] |  | IC50 (ROCK 1): > 3000 nM |
| COCC(=O)Nc1ccccc1-c1nc(Nc2ccc3[nH]ncc3c2)c2ccccc2n1 [Example 225] | 1.7 µM |  |
| COCCNC(=O)COc1cccc(-c2nc(Nc3ccc4[nH]ncc4c3)c3ccccc3n2)c1 [Example 54, 2-(3-(4-(1H-indazol-5-ylamino)quinazolin-2-yl)phenoxy)-N-(2-methoxyethyl)acetamide] |  | IC50 (ROCK 1): > 10000 nM |
| COCCNC(=O)COc1ccccc1-c1nc(Nc2ccc3[nH]ncc3c2)c2ccccc2n1 [Example 234] | > 100 µM |  |
| CNCC(=O)Nc1ccccc1-c1nc(Nc2ccc3[nH]ncc3c2)c2ccccc2n1 [Example 215] | 17 µM and > 10 µM |  |
| O=C(Nc1ccccc1-c1nc(Nc2ccc3[nH]ncc3c2)c2ccccc2n1)N1CCOCC1 [Example 220] | > 100 µM |  |
| O=C(Nc1ccccc1-c1nc(Nc2ccc3[nH]ncc3c2)c2ccccc2n1)c1ccncc1 [Example 222] | > 100 µM |  |
| O=C(Nc1ccccc1-c1nc(Nc2ccc3[nH]ncc3c2)c2ccccc2n1)c1ccccn1 [Example 223] | > 100 µM |  |
| CCCC(=O)Nc1cccc(-c2nc(Nc3ccc4[nH]ncc4c3)c3cc(OCCN4CC[C@H](N(C)C)C4)c(OC)cc3n2)c1 [Example 210, N-(3-(4-(1H-indazol-5-ylamino)-6-(2-((S)-3-(dimethylamino)pyrrolidin-1-yl)ethoxy)-7-methoxyquinazolin-2-yl)phenyl)butyramide] | 0.018 µM and 0.01 µM |  |
| CCCC(=O)Nc1cccc(-c2nc(Nc3ccc4[nH]ncc4c3)c3cc(OCCCN4CCOCC4)c(OC)cc3n2)c1 [Example 160, N-(3-(4-(1H-indazol-5-ylamino)-7-methoxy-6-(3-morpholinopropoxy)quinazolin-2-yl)phenyl)butyramide] |  | IC50 (ROCK 1): > 3000 nM |
| CCCC(=O)Nc1cccc(-c2nc(Nc3ccc4c(cnn4C(=O)OC(C)(C)C)c3)c3cc(OCCOC)c(OC)cc3n2)c1 [Example 261] | > 0.3 µM |  |
| C[C@@H](N)[C@H]1CC[C@H](C(=O)Nc2ccncc2)CC1 [Example Y27632, reference compound] |  | Specificity of kinase inhibition (FIG. 10) (ROCK2): inhibits both ROCK1 and ROCK2, as well as PKC |
| CCCC(=O)Nc1cccc(-c2nc(Nc3ccc4[nH]ncc4c3)c3cc(OCCN4CCC(O)C4)ccc3n2)c1 (centres unmarked) [Example 205, N-(3-(4-(1H-indazol-5-ylamino)-6-(2-(3-hydroxypyrrolidin-1-yl)ethoxy)-quinazolin-2-yl)phenyl)butyramide] | 0.011 µM and 0.012 µM and 0.008 µM and 0.013 µM |  |
| CCCC(=O)Nc1cccc(-c2nc(Nc3ccc4[nH]ncc4c3)c3cc(OCC4CC4)ccc3n2)c1 [Example 258] | 0.255 µM and 0.182 µM |  |
| CC(=O)Oc1cccc(-c2nc(Nc3ccc4[nH]ncc4c3)c3ccccc3n2)c1 [Example 272] |  | IC50 (ROCK 1): > 10000 nM |
| CN(C)CCC(=O)Nc1ccccc1-c1nc(Nc2ccc3[nH]ncc3c2)c2ccccc2n1 [Example 224] | 5.3 µM |  |
